Assay results: patent US20070128217A1 (priority 2003, published 2007)

Legend:
[1] = test system: antibodies in sera from SARS patients (sera 1a, 1b, 2, 6, 37, 62, London, SARS-yellow, SARS-green); format: binding, human; parameters: Binding of serum 6 to linear peptides of protein X1 of SARS-CoV Urbani / Binding of serum 37 to linear peptides of protein X1 of SARS-CoV Urbani / Binding of serum 6 to looped/cyclic peptide (PEPSCAN-ELISA) / Binding of serum 37 to looped/cyclic peptide (PEPSCAN-ELISA) / Binding of serum 37 to looped/cyclic peptides of protein X1 of SARS-CoV Urbani / Binding of serum 6 to linear peptides of protein X2 / Binding of serum 37 to linear peptides of protein X2 / Binding of serum 37 to looped/cyclic peptides of protein X2 of SARS-CoV Urbani / Binding of serum 6 to linear peptides of protein M of SARS-CoV Urbani / Binding of serum 37 to linear peptides of protein M of SARS-CoV Urbani / Binding of serum 6 to looped/cyclic peptides of protein M of SARS-CoV Urbani / Binding of serum 37 to looped/cyclic peptides of protein M of SARS-CoV Urbani / Binding of serum 6 to linear peptides of protein X3 of SARS-CoV Urbani / Binding of serum 37 to linear peptides of protein X3 of SARS-CoV Urbani / Binding of serum 37 to looped/cyclic peptides of protein X3 of SARS-CoV Urbani / Binding of serum 6 to linear peptides of protein X4 of SARS-CoV Urbani / Binding of serum 37 to linear peptides of protein X4 of SARS-CoV Urbani / Binding of serum 37 to looped/cyclic peptides of protein X4 of SARS-CoV Urbani / Binding of serum 6 to linear peptides of protein X5 of SARS-CoV Urbani / Binding of serum 37 to linear peptides of protein X5 of SARS-CoV Urbani / Binding of serum 37 to looped/cyclic peptides of protein X5 of SARS-CoV Urbani / Binding of serum 6 to linear peptides of protein N of SARS-CoV Urbani / Binding of serum 37 to linear peptides of protein N of SARS-CoV Urbani / Binding of serum 6 to linear peptide (PEPSCAN-ELISA) / Binding of serum 1a to looped/cyclic peptides of protein N of SARS-CoV Urbani / Binding of serum 1b to looped/cyclic peptides of protein N of SARS-CoV Urbani / Binding of serum 2 to looped/cyclic peptides of protein N of SARS-CoV Urbani / Binding of serum 6 to looped/cyclic peptides of protein N of SARS-CoV Urbani / Binding of serum 37 to looped/cyclic peptides of protein N of SARS-CoV Urbani / Binding of serum 62 to looped/cyclic peptides of protein N of SARS-CoV Urbani / Binding of serum London to looped/cyclic peptides of protein N of SARS-CoV Urbani / Binding of serum SARS-green to looped/cyclic peptides of protein N of SARS-CoV Urbani: unit not given here
[2] = test system: control sera (pooled serum of ten healthy LUMC hospital workers; commercial negative donor pooled serum from the Dutch bloodbank); format: binding, human; parameters: Binding of Control serum LUMC to linear peptides / Binding of Control serum Blood-bank to linear peptides / Binding of Control serum LUMC to looped peptides / Binding of Control Serum Blood-Bank to Looped peptides / Binding of Control serum LUMC to linear peptides of the protein M of SARS-CoV Urbani / Binding of Control serum Blood-bank to linear peptides of the protein M of SARS-CoV Urbani / Binding of Control serum LUMC to looped peptides of the protein M of SARS-CoV Urbani / Binding of Control Serum Blood-Bank to Looped peptides of the protein M of SARS-CoV Urbani: unit not given here
[3] = test system: rabbit serum obtained by immunizing a rabbit with the SARS-CoV strain Frankfurt 1; format: binding; parameters: Binding of a rabbit serum to linear peptides / Binding of a rabbit serum to looped peptides / Rabbit serum linear peptides / Rabbit serum looped peptides / Binding of a rabbit serum to linear peptides of protein N of SARS-CoV Urbani (Rabbit serum linear peptides) / Binding of a rabbit serum to looped/cyclic peptides of protein N of SARS-CoV Urbani (Rabbit serum looped peptides): unit not given here
[4] = test system: recombinant human anti-SARS-CoV antibody 03-018; format: binding; parameters: Binding of antibody 03-018 to linear peptides of the N protein of SARS-CoV Urbani / Binding of antibody 03-018 to looped/cyclic peptides of the N protein of SARS-CoV Urbani: unit not given here

Sequence: PDDQIGYYRRATRRV
- Binding of serum 1a to linear peptides of protein N of SARS-CoV Urbani [1]: 0.2
- Binding of serum 1a to looped/cyclic peptides of protein N of SARS-CoV Urbani [1]: 0.4
- Binding of serum 1b to linear peptides of protein N of SARS-CoV Urbani [1]: 0.1
- Binding of serum 1b to looped/cyclic peptides of protein N of SARS-CoV Urbani [1]: 0.3
- Binding of serum 2 to linear peptides of protein N of SARS-CoV Urbani [1]: 0.2
- Binding of serum 2 to looped/cyclic peptides of protein N of SARS-CoV Urbani [1]: 0.6
- Binding of serum 6 to linear peptides of protein N of SARS-CoV Urbani [1]: 0.2
- Binding of serum 6 to looped/cyclic peptides of protein N of SARS-CoV Urbani [1]: 0.5
- Binding of serum 37 to linear peptides of protein N of SARS-CoV Urbani [1]: 0.6
- Binding of serum 37 to looped/cyclic peptides of protein N of SARS-CoV Urbani [1]: 0.9
- Binding of serum 62 to linear peptides of protein N of SARS-CoV Urbani [1]: 0.5
- Binding of serum 62 to looped/cyclic peptides of protein N of SARS-CoV Urbani [1]: 0.8
- Binding of serum London to linear peptides of protein N of SARS-CoV Urbani [1]: 0.4
- Binding of serum London to looped/cyclic peptides of protein N of SARS-CoV Urbani [1]: 0.5
- Binding of serum SARS-green to linear peptides of protein N of SARS-CoV Urbani [1]: 0.3
- Binding of serum SARS-green to looped/cyclic peptides of protein N of SARS-CoV Urbani [1]: 0.8
- Binding of serum SARS-yellow to linear peptides of protein N of SARS-CoV Urbani [1]: 0.6
- Binding of serum SARS-yellow to looped/cyclic peptides of protein N of SARS-CoV Urbani [1]: 0.7
- Binding of Control Serum Blood-Bank to Looped peptides [2]: 0.8
- Binding of Control serum Blood-bank to linear peptides [2]: 0.6
- Binding of Control serum LUMC to linear peptides [2]: 0.6
- Binding of Control serum LUMC to looped peptides [2]: 0.8
- Recognition of the peptide by the rabbit serum [3]: recognized
- Binding of antibody 03-018 to linear peptides of the N protein of SARS-CoV Urbani [4]: 0.1
- Binding of antibody 03-018 to looped/cyclic peptides of the N protein of SARS-CoV Urbani [4]: 0.3

Sequence: FAPSASAFFGMSRIG
- Binding of serum 1a to linear peptides of protein N of SARS-CoV Urbani [1]: 0.2
- Binding of serum 1a to looped/cyclic peptides of protein N of SARS-CoV Urbani [1]: 0.3
- Binding of serum 1b to linear peptides of protein N of SARS-CoV Urbani [1]: 0.1
- Binding of serum 1b to looped/cyclic peptides of protein N of SARS-CoV Urbani [1]: 0.1
- Binding of serum 2 to linear peptides of protein N of SARS-CoV Urbani [1]: 0.2
- Binding of serum 2 to looped/cyclic peptides of protein N of SARS-CoV Urbani [1]: 0.4
- Binding of serum 6 to linear peptides of protein N of SARS-CoV Urbani [1]: 0.1
- Binding of serum 6 to looped/cyclic peptides of protein N of SARS-CoV Urbani [1]: 0.3
- Binding of serum 37 to linear peptides of protein N of SARS-CoV Urbani [1]: 0.6
- Binding of serum 37 to looped/cyclic peptides of protein N of SARS-CoV Urbani [1]: 0.5
- Binding of serum 62 to linear peptides of protein N of SARS-CoV Urbani [1]: 0.5
- Binding of serum 62 to looped/cyclic peptides of protein N of SARS-CoV Urbani [1]: 0.4
- Binding of serum London to linear peptides of protein N of SARS-CoV Urbani [1]: 0.4
- Binding of serum London to looped/cyclic peptides of protein N of SARS-CoV Urbani [1]: 0.9
- Binding of serum SARS-green to linear peptides of protein N of SARS-CoV Urbani [1]: 0.4
- Binding of serum SARS-green to looped/cyclic peptides of protein N of SARS-CoV Urbani [1]: 0.0
- Binding of serum SARS-yellow to linear peptides of protein N of SARS-CoV Urbani [1]: 0.5
- Binding of serum SARS-yellow to looped/cyclic peptides of protein N of SARS-CoV Urbani [1]: 0.5
- Control Serum Blood-Bank Looped peptides [2]: 0.4
- Control serum Blood-bank linear peptides [2]: 0.5
- Control serum LUMC linear peptides [2]: 0.6
- Control serum LUMC looped peptides [2]: 0.4
- Binding of a rabbit serum to linear peptides of protein N of SARS-CoV Urbani (Rabbit serum linear peptides) [3]: 0.0
- Binding of a rabbit serum to looped/cyclic peptides of protein N of SARS-CoV Urbani (Rabbit serum looped peptides) [3]: 0.3
- Binding of antibody 03-018 to linear peptides of the N protein of SARS-CoV Urbani [4]: 0.1
- Binding of antibody 03-018 to looped/cyclic peptides of the N protein of SARS-CoV Urbani [4]: 0.2

Sequence: NNNAATVLQLPQGTT
- Binding of serum 1a to linear peptides of protein N of SARS-CoV Urbani [1]: 0.2
- Binding of serum 1a to looped/cyclic peptides of protein N of SARS-CoV Urbani [1]: 0.4
- Binding of serum 1b to linear peptides of protein N of SARS-CoV Urbani [1]: 0.1
- Binding of serum 1b to looped/cyclic peptides of protein N of SARS-CoV Urbani [1]: 0.3
- Binding of serum 2 to linear peptides of protein N of SARS-CoV Urbani [1]: 0.2
- Binding of serum 2 to looped/cyclic peptides of protein N of SARS-CoV Urbani [1]: 0.5
- Binding of serum 6 to linear peptides of protein N of SARS-CoV Urbani [1]: 0.1
- Binding of serum 6 to looped/cyclic peptides of protein N of SARS-CoV Urbani [1]: 0.2
- Binding of serum 37 to linear peptides of protein N of SARS-CoV Urbani [1]: 0.7
- Binding of serum 37 to looped/cyclic peptides of protein N of SARS-CoV Urbani [1]: 0.6
- Binding of serum 62 to linear peptides of protein N of SARS-CoV Urbani [1]: 0.5
- Binding of serum 62 to looped/cyclic peptides of protein N of SARS-CoV Urbani [1]: 0.5
- Binding of serum London to linear peptides of protein N of SARS-CoV Urbani [1]: 0.5
- Binding of serum London to looped/cyclic peptides of protein N of SARS-CoV Urbani [1]: 0.5
- Binding of serum SARS-green to linear peptides of protein N of SARS-CoV Urbani [1]: 0.4
- Binding of serum SARS-green to looped/cyclic peptides of protein N of SARS-CoV Urbani [1]: 0.5
- Binding of serum SARS-yellow to linear peptides of protein N of SARS-CoV Urbani [1]: 0.7
- Binding of serum SARS-yellow to looped/cyclic peptides of protein N of SARS-CoV Urbani [1]: 0.4
- Binding of Control Serum Blood-Bank to Looped peptides [2]: 0.7
- Binding of Control serum Blood-bank to linear peptides [2]: 0.8
- Binding of Control serum LUMC to linear peptides [2]: 0.7
- Binding of Control serum LUMC to looped peptides [2]: 0.8
- Binding of a rabbit serum to linear peptides of protein N of SARS-CoV Urbani (Rabbit serum linear peptides) [3]: 0.1
- Binding of a rabbit serum to looped/cyclic peptides of protein N of SARS-CoV Urbani (Rabbit serum looped peptides) [3]: 0.4
- Binding of antibody 03-018 to linear peptides of the N protein of SARS-CoV Urbani [4]: 0.1
- Binding of antibody 03-018 to looped/cyclic peptides of the N protein of SARS-CoV Urbani [4]: 0.3

Sequence: PYGANKEGIVWVATE
- Binding of serum 1a to linear peptides of protein N of SARS-CoV Urbani [1]: 0.3
- Binding of serum 1a to looped/cyclic peptides of protein N of SARS-CoV Urbani [1]: 0.4
- Binding of serum 1b to linear peptides of protein N of SARS-CoV Urbani [1]: 0.2
- Binding of serum 1b to looped/cyclic peptides of protein N of SARS-CoV Urbani [1]: 0.3
- Binding of serum 2 to linear peptides of protein N of SARS-CoV Urbani [1]: 0.2
- Binding of serum 2 to looped/cyclic peptides of protein N of SARS-CoV Urbani [1]: 0.5
- Binding of serum 6 to linear peptides of protein N of SARS-CoV Urbani [1]: 0.2
- Binding of serum 6 to looped/cyclic peptides of protein N of SARS-CoV Urbani [1]: 0.3
- Binding of serum 37 to linear peptides of protein N of SARS-CoV Urbani [1]: 1.0
- Binding of serum 37 to looped/cyclic peptides of protein N of SARS-CoV Urbani [1]: 0.9
- Binding of serum 62 to linear peptides of protein N of SARS-CoV Urbani [1]: 0.8
- Binding of serum 62 to looped/cyclic peptides of protein N of SARS-CoV Urbani [1]: 0.9
- Binding of serum London to linear peptides of protein N of SARS-CoV Urbani [1]: 0.7
- Binding of serum London to looped/cyclic peptides of protein N of SARS-CoV Urbani [1]: 0.5
- Binding of serum SARS-green to linear peptides of protein N of SARS-CoV Urbani [1]: 0.8
- Binding of serum SARS-green to looped/cyclic peptides of protein N of SARS-CoV Urbani [1]: 0.8
- Binding of serum SARS-yellow to linear peptides of protein N of SARS-CoV Urbani [1]: 0.6
- Binding of serum SARS-yellow to looped/cyclic peptides of protein N of SARS-CoV Urbani [1]: 0.7
- Binding of Control Serum Blood-Bank to Looped peptides [2]: 0.6
- Binding of Control serum Blood-bank to linear peptides [2]: 0.7
- Binding of Control serum LUMC to linear peptides [2]: 0.7
- Binding of Control serum LUMC to looped peptides [2]: 0.7
- Binding of a rabbit serum to linear peptides of protein N of SARS-CoV Urbani (Rabbit serum linear peptides) [3]: 0.2
- Binding of a rabbit serum to looped/cyclic peptides of protein N of SARS-CoV Urbani (Rabbit serum looped peptides) [3]: 0.2
- Binding of antibody 03-018 to linear peptides of the N protein of SARS-CoV Urbani [4]: 0.1
- Binding of antibody 03-018 to looped/cyclic peptides of the N protein of SARS-CoV Urbani [4]: 0.2
